# According to paper PMC12172035, “The Thienopyrimidinone Gamhépathiopine Targets the QO Site of Plasmodium falciparum Cytochrome b” (ACS Infectious Diseases, 2025):
# Target: T1, cytochrome b (Plasmodium falciparum, UniProt Q02768)
# T1 construct: gene MT-CYB; native complex III in mitochondrial membrane fraction of P. falciparum 3D7 lysate; with complex III (cytochrome c1, Rieske iron-sulfur protein)
# T1 sequence (Q02768 1-376): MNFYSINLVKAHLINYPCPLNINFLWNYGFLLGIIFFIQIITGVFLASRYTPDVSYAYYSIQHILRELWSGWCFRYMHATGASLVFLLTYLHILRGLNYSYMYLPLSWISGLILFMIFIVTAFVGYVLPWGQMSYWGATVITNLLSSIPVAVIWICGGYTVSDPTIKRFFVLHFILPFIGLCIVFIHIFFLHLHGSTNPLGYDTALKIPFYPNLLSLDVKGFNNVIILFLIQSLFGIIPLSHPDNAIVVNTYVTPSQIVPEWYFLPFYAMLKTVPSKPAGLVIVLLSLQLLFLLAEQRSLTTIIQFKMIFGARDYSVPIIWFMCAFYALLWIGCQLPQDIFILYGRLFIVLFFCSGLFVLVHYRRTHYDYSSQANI
# Assay: complex III activity assay (decylubiquinol-driven cytochrome c reduction, […] nm) in P. falciparum membrane-enriched lysate; supported by resistance mutations in cytochrome b
# Format: cell-based
compound,measurement,value
Cc1ccc(-c2cc3nc(NC(C)(C)C)[nH]c(=O)c3s2)cc1 [gamhépathiopine],inhibition at 20 µM,> 93%
